Reference: ChEMBL document CHEMBL1201862, “PubChem BioAssay data set” (2004)
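Cultured in 96-well plates, cells were exposed to test compound for 48 hours across five concentrations. GI50 = concentration required for 50% inhibition of growth.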 Calls of active or inactive are those of the source. No stated cut-off is given here; in the data, active = GI50 up to about 1.1 µM and inactive = higher.

Key:
Assay in all cases: NCI anticancer screen, dose series, 48 h
ACHN = test system: ACHN
BT-549 = test system: BT-549
CAKI-1 = test system: CAKI-1
CCRF-CEM = test system: CCRF-CEM
DU-145 = test system: DU-145
EKVX = test system: EKVX
HCC 2998 = test system: HCC 2998
HOP-62 = test system: HOP-62
M14 = test system: M14
MDA-MB-231 = test system: MDA-MB-231
NCI-H522 = test system: NCI-H522
NCI/ADR-RES = test system: NCI/ADR-RES
OVCAR-8 = test system: OVCAR-8
RPMI-8226 = test system: RPMI-8226
SF-268 = test system: SF-268
SK-OV-3 = test system: SK-OV-3
SN12C = test system: SN12C
SNB-19 = test system: SNB-19
U-251 = test system: U-251
UACC-257 = test system: UACC-257

SMILES | GI50 (ACHN) | GI50 (BT-549) | GI50 (CAKI-1) | GI50 (CCRF-CEM) | GI50 (DU-145) | GI50 (EKVX) | GI50 (HCC 2998) | GI50 (HOP-62) | GI50 (M14) | GI50 (MDA-MB-231) | GI50 (NCI-H522) | GI50 (NCI/ADR-RES) | GI50 (OVCAR-8) | GI50 (RPMI-8226) | GI50 (SF-268) | GI50 (SK-OV-3) | GI50 (SN12C) | GI50 (SNB-19) | GI50 (U-251) | GI50 (UACC-257)
COC(=O)Nc1nc2ccc(S(=O)(=O)SC)cc2[nH]1 | 10.2 µM (inactive) | 10.1 µM (inactive) | 4.88 µM (inactive) | 3.52 µM (inactive) | 6.05 µM (inactive) | 8.69 µM (inactive) | 10.4 µM (inactive) | 21.1 µM (inactive) | 3.4 µM (inactive) | 11.6 µM (inactive) | 4.33 µM (inactive) | 3.61 µM (inactive) | 5.13 µM (inactive) | 3.84 µM (inactive) | 16.5 µM (inactive) | 8.39 µM (inactive) | 10.9 µM (inactive) | 7.55 µM (inactive) | 5.51 µM (inactive) | 10.8 µM (inactive)
CCN1CCN(c2nc3ccccc3nc2C(=O)c2ccc(OC)c(OC)c2)CC1 | 9.91 µM (inactive) | 21.2 µM (inactive) | 82.4 µM (inactive) | 10 µM (inactive) | 30.5 µM (inactive) | 19 µM (inactive) | 2.3 µM (inactive) | 21.4 µM (inactive) | 16.2 µM (inactive) | 14.8 µM (inactive) | 12 µM (inactive) | 1.6 µM (inactive) | 12.6 µM (inactive) | 10.1 µM (inactive) | 19.3 µM (inactive) | 12.1 µM (inactive) | 42.1 µM (inactive) | 24 µM (inactive) | 14.8 µM (inactive) | 21.9 µM (inactive)
CC(=O)On1c(-c2ccccc2-c2nc3ccccc3n2OC(C)=O)nc2ccccc21 | 61.8 µM (inactive) | 30.3 µM (inactive) | > 100 µM (inactive) | 41.3 µM (inactive) | 49.7 µM (inactive) | > 10 µM (inactive) | 33.4 µM (inactive) | 97.9 µM (inactive) | 33.8 µM (inactive) | 42.8 µM (inactive) | 18.5 µM (inactive) | 79.3 µM (inactive) | 36.5 µM (inactive) | 7.82 µM (inactive) | 23 µM (inactive) | 55.1 µM (inactive) | 39.6 µM (inactive) | 60.5 µM (inactive) | 12.8 µM (inactive) | 12.5 µM (inactive)
O=C1C(S(=O)(=O)c2ccccc2)=C(CS(=O)(=O)c2ccccc2)[C@@H](OCc2ccccc2)[C@@H]1OCc1ccccc1 | 31.8 µM (inactive) | 13.5 µM (inactive) | 30.1 µM (inactive) | 14 µM (inactive) | 35.2 µM (inactive) | 27.2 µM (inactive) | 18.9 µM (inactive) | 19 µM (inactive) | 15.7 µM (inactive) | 23.9 µM (inactive) | 16 µM (inactive) | 20.7 µM (inactive) | 18.5 µM (inactive) | 11.6 µM (inactive) | 29.9 µM (inactive) | 41.5 µM (inactive) | 22.3 µM (inactive) | 34.3 µM (inactive) | 19.6 µM (inactive) | 21.6 µM (inactive)
CO/C=C(/C(=O)OC)[C@@H]1C[C@@H]1c1ccc2ccccc2c1 | 25.9 µM (inactive) | 21.8 µM (inactive) | 21.6 µM (inactive) | 27.6 µM (inactive) | 38.9 µM (inactive) | 19.2 µM (inactive) | 20.4 µM (inactive) | 45.4 µM (inactive) | 22.8 µM (inactive) | 26.3 µM (inactive) | 12 µM (inactive) | 26.4 µM (inactive) | 34 µM (inactive) | 20.3 µM (inactive) | 24.9 µM (inactive) | 22.2 µM (inactive) | 32.7 µM (inactive) | 56.5 µM (inactive) | 27.4 µM (inactive) | 26 µM (inactive)
NC(Cc1cccc([N+](=O)[O-])c1)C(=O)O (stereo not given) | > 100 µM (inactive) | > 100 µM (inactive) | > 100 µM (inactive) | > 100 µM (inactive) | > 100 µM (inactive) | > 100 µM (inactive) | > 100 µM (inactive) | > 100 µM (inactive) | > 100 µM (inactive) | > 100 µM (inactive) | > 100 µM (inactive) | > 100 µM (inactive) | > 100 µM (inactive) | > 100 µM (inactive) | > 100 µM (inactive) | > 100 µM (inactive) | > 100 µM (inactive) | > 100 µM (inactive) | > 100 µM (inactive) | > 100 µM (inactive)
NC(=O)Cc1nc2c(N)ncnc2n1C1OC(CO)C(O)C1O (stereo not given) | > 100 µM (inactive) | > 100 µM (inactive) | > 100 µM (inactive) | > 100 µM (inactive) | > 100 µM (inactive) | > 100 µM (inactive) | > 100 µM (inactive) | > 100 µM (inactive) | > 100 µM (inactive) | > 100 µM (inactive) | > 100 µM (inactive) | > 100 µM (inactive) | > 100 µM (inactive) | > 100 µM (inactive) | > 100 µM (inactive) | > 100 µM (inactive) | > 100 µM (inactive) | > 100 µM (inactive) | > 100 µM (inactive) | > 100 µM (inactive)
COCCOCCOC1=C(Cl)C(=O)c2c(O)ccc(O)c2C1=O | 1.68 µM (inactive) | 2.15 µM (inactive) | 1.27 µM (inactive) | 0.414 µM (active) | 9.31 µM (inactive) | 8.57 µM (inactive) | 18.6 µM (inactive) | 2.39 µM (inactive) | 1.59 µM (inactive) | 2.01 µM (inactive) | 1.01 µM (active) | 2.93 µM (inactive) | 2.21 µM (inactive) | 0.718 µM (active) | 2.59 µM (inactive) | 19 µM (inactive) | 1.89 µM (inactive) | 13.5 µM (inactive) | 5.16 µM (inactive) | 1.99 µM (inactive)
CC(=O)OCCOCCN1CCN(C2=C(Cl)C(=O)c3c(O)ccc(O)c3C2=O)CC1 | 0.286 µM (active) | 0.776 µM (active) | 0.339 µM (active) | 0.0662 µM (active) | 1.88 µM (inactive) | 1.67 µM (inactive) | 2.37 µM (inactive) | 3.04 µM (inactive) | 0.458 µM (active) | 0.397 µM (active) | 0.265 µM (active) | 0.296 µM (active) | 0.685 µM (active) | 0.249 µM (active) | 1.86 µM (inactive) | 3.66 µM (inactive) | 0.767 µM (active) | 3.04 µM (inactive) | 2.13 µM (inactive) | 1.02 µM (active)
COc1ccc2c(c1)[n+]([O-])c(/C(C)=N/NC(N)=S)c(C)[n+]2[O-] | 38.5 µM (inactive) | 90.4 µM (inactive) | 70.5 µM (inactive) | 27.6 µM (inactive) | 44.2 µM (inactive) | 44 µM (inactive) | 20.5 µM (inactive) | 75.3 µM (inactive) | 37.6 µM (inactive) | 89.7 µM (inactive) | 31 µM (inactive) | 28.8 µM (inactive) | 46.3 µM (inactive) | 57 µM (inactive) | 46.3 µM (inactive) | > 100 µM (inactive) | 39.4 µM (inactive) | > 100 µM (inactive) | 44.4 µM (inactive) | > 60.3 µM (inactive)
